# Source: patent publication US20250082577A1, “POLYMER BEADLET COMPOSITIONS AND METHODS OF USE THEREOF FOR IMPROVED STABILITY, BIOAVAILABILITY & SUSTAINED RELEASE” (SpecNova LLC, priority 2023, published 2025)
# Key:
# [1] = cited from earlier work
# [2] = whole-body creatine retention from 24-hour urine, double-blind randomized crossover study; settings: 2 x 5 g oral, 8 hours apart (total 10 grams), fifteen females and males
# Protocol: Participants adhered to a plant-based protein diet prior to each testing session. […] Participants were then randomly assigned to ingest capsules containing 5 g of CrM or 5 g of CrM prepared in beadlets (CrM-Bead). […] Participants repeated the experiment after a seven-day washout while ingesting the crossover supplement, i.e. the CrM-Bead group was given CrM and the CrM group was given Crm-Beads. Whole-body creatine retention was determined by subtracting CrM intake from the difference between post-supplementation urine creatine content and expressed in percent retention.
smiles,measurement,setting,value
"CN(CC(=O)O)C(=N)N.O [CrM, creatine monohydrate]",time to return to baseline in the blood after oral ingestion,[1],4 to 5 h
same,24-hour whole-body creatine retention,[2],81.8%±11.4%
